From patent US12448655B2, “Antibiotic susceptibility of microorganisms and related methods and systems” (CALIFORNIA INSTITUTE OF TECHNOLOGY, priority 2017, dated 2025)

Tests used:
Format in all cases: cell-based
[1] = system: Neisseria gonorrhoeae; experiment: Minimum inhibitory concentrations (MICs) of Neisseria gonorrhoeae clinical isolates
Description: Isolates and agar-dilution MIC testing. Isolates were provided by the University of Washington Neisseria Reference Laboratory and the Centers for Disease Control (CDC) Antibiotic Resistance Isolate Bank Neisseria gonorrhoeae panel (SINuca-Table). MICs of the CDC AR Isolate Bank are reported by the CDC [10], and MIC of all other isolates were determined by agar dilution according to the Clinical and Laboratory Standards Institute (CLSI) guidelines.

[2] = system: Neisseria gonorrhoeae; experiment: Two-step aAST with surfactant (CHAPS) only in the secondary exposure, qPCR CT ratio (Example 11); conditions: 1 μg/mL ceftriaxone 15 min, then 10 mM CHAPS with DNaseI 5 min
Description: This example was performed using a two-step exposure in which the first step is exposure to a beta-lactam antibiotic and the second step is a 1:1 dilution into DNaseI treatment in the presence of a surfactant.
The inclusion of the surfactant enhances the accessible nucleic acids made available by short (15 minute) b-lactam exposure by adding a second incubation step with a surfactant. Differences in DNA accessibility between the unexposed and exposed tubes are enhanced. DNaseI is used to degrade the DNA made accessible by beta-lactam treatment and the surfactant.
FIG. 23 describes the layout of this experiment. An NG isolate is incubated with a beta-lactam antibiotic for 15 minutes, followed by a DNaseI digestion step in the presence of surfactant. At each time point, DNaseI will be added to degrade the accessible DNA, then the DNaseI will be inactivated simultaneously with the lysis of the remaining cells. The quantified nucleic acids represent those inaccessible from the DNaseI throughout the exposure protocol. • 1. Provide incubation media containing enhancer, accessibility, with and without an antibiotic for each isolate
The samples were mixed before transferring 25 μL of the sample to the prepared secondary incubation (enhancer) tubes. […]

[3] = system: Klebsiella pneumoniae; experiment: Minimum inhibitory concentrations (MICs) of Enterobacteriaceae clinical isolates
Description: (§1) Clinical isolates referenced, minimum inhibitory concentrations (MICs), and categorical susceptibility based on CLSI breakpoints The below list of organisms are examples of clinically-relevant susceptible and resistant Enterobacteriaceae clinical isolates. Minimum inhibitory concentrations (MICs) are provided in μg/mL for the antibiotics listed.
(§2) Isolates, growth conditions, and antibiotic exposure conditions. 25 de-identified clinical isolates were obtained from the UCLA Clinical Microbiology Laboratory (CML) and the CDC's Enterobacteriaceae Carbapenem Breakpoint panel. In the case of isolates obtained from the UCLA CML, MICs were determined as described previously. Genotypic testing of the two Ec and two Kp isolates selected for their lack of known β-lactamase genes was performed by UCLA CML using a previously published assay and separately at the Keck School of Medicine of USC using the FDA-approved Cepheid Xpert® Carba-R test. Whole genome sequencing of the single Ebs isolate selected for its lack of known resistance genes was performed by the CDC [3]. All isolates were stored as glycerol stocks at −80° C. Glycerol stocks were streaked onto Trypticase Soy Agar with 5% sheep's blood (Becton Dickinson, Franklin Lakes, NJ, USA) and grown overnight at 37° C. Prior to experiments, a small clump of cells was resuspended in 2 mL Brain Heart Infusion Broth (BHI, Becton Dickinson) at 37° C.+5% CO2 with 500 rpm shaking for 2 to 4 h until visibly turbid. OD600 of the cultures was then measured, and working cultures prepared at an OD600 of 0.01-0.07 and grown for 50-145 min at 37° C.+5% CO2 with 500 rpm. Working cultures were then diluted 10× into control and treated aliquots for antibiotic exposure. For validation experiments, antibiotic exposure was performed in 100 μL volumes consisting of 80 μL Mueller Hinton II Broth (Becton Dickinson), 5 μL nuclease-free H2O (NF—H2O), 5 μL 20× antibiotic stock solution, and 10 μL of working culture. In control aliquots, antibiotic stock solution was replaced with NF—H2O. For filtration experiments, antibiotic exposure was performed in 100 μL volumes consisting of 65 μL Mueller Hinton II Broth (Becton Dickinson), 21 μL nuclease-free H2O (NF—H2O), 4 μL 25× antibiotic stock solution, and 10 μL of working culture. In control aliquots, antibiotic stock solution was replaced with NF—H2O.

[4] = system: Escherichia coli; experiment: as above
Description: as §1, §2

| Compound | Antibiotic MICs ([1]; isolate ng_1) [µg/mL] | Antibiotic MICs ([1]; isolate ng_2) [µg/mL] | Antibiotic MICs ([1]; isolate ng_3) [µg/mL] | Antibiotic MICs ([1]; isolate ng_4) [µg/mL] | Antibiotic MICs ([1]; isolate ng_5) [µg/mL] | Antibiotic MICs ([1]; isolate ng_6) [µg/mL] | Antibiotic MICs ([1]; isolate ng_12) [µg/mL] | Antibiotic MICs ([1]; isolate ng_15) [µg/mL] | Antibiotic MICs ([1]; isolate ng_16) [µg/mL] | Antibiotic MICs ([1]; isolate ng_17) [µg/mL] | Antibiotic MICs ([1]; isolate ng_18) [µg/mL] | Antibiotic MICs ([1]; isolate ng_19) [µg/mL] | Antibiotic MICs ([1]; isolate ng_20) [µg/mL] | Antibiotic MICs ([1]; isolate ng_30) [µg/mL] | Antibiotic MICs ([1]; isolate ng_41) [µg/mL] | Antibiotic MICs ([1]; isolate ng_44) [µg/mL] | also measured |
| --- | --- | --- | --- | --- | --- | --- | --- | --- | --- | --- | --- | --- | --- | --- | --- | --- | --- |
| CO/N=C(\C(=O)N[C@@H]1C(=O)N2C(C(=O)O)=C(CSc3nc(=O)c(=O)[nH]n3C)CS[C@H]12)c1csc(N)n1 [CRO, ceftriaxone] | ≤0.008 | <0.008 | ≤0.008 | 0.030 | 0.015 | ≤0.008 | 0.015 | ≤0.008 | ≤0.008 | ≤0.008 | 0.030 | 0.015 | ≤0.008 | 0.500 | 0.125 | ≤0.008 | Antibiotic MICs ([1]; isolate ng_15, listed as ceftriaxone): < 0.008 µg/mL; Antibiotic MICs ([1]; isolate ng_17, listed as ceftriaxone): ≤ 0.008 µg/mL; Antibiotic MICs ([1]; isolate ng_30, listed as ceftriaxone): 0.05 µg/mL; CT ratio (control/treated, qPCR) ([2]; ceftriaxone-susceptible isolates ng_5, ng_17, ng_19): > 1.5; CT ratio (control/treated, qPCR) ([2]; reduced-susceptibility isolate ng_30): < 1.5; Antibiotic MICs ([3]; isolate Kp_1): <=1 μg/mL; Antibiotic MICs ([3]; isolate Kp_2): <=1 μg/mL; Antibiotic MICs ([3]; isolate Kp_7): >32 µg/mL; Antibiotic MICs ([3]; isolate Kp_8): >32 µg/mL; Antibiotic MICs ([4]; isolate Ec_1): <=1 μg/mL; Antibiotic MICs ([4]; isolate Ec_2): <=1 μg/mL; Antibiotic MICs ([4]; isolate Ec_3): <=1 μg/mL; Antibiotic MICs ([4]; isolate Ec_4): <=1 μg/mL; Antibiotic MICs ([4]; isolate Ec_38): >32 µg/mL; Antibiotic MICs ([4]; isolate Ec_39): >32 µg/mL; Antibiotic MICs ([4]; isolate Ec_40): >=64 μg/mL; Antibiotic MICs ([4]; isolate Ec_41): >32 µg/mL |
| penicillin | 0.250 | 0.250 | 0.250 | 0.500 | 1.000 | 0.250 | 0.500 | 0.015 | 0.015 | 0.060 | 2.000 | 2.000 | 0.060 | 1.000 | 2.000 | 8.000 |  |
